Laboratory results as given in patent US20180251431A1 (VERTEX PHARMACEUTICALS INCORPORATED, priority 2016, published 2018).

Tested on: human microglia
Experiment: Reduction in C26:0 LPC in human microglia in vitro
Format: cell-based
Settings: half maximal reduction in C26:0 LPC
Procedure: Lysophosphatidylcholine (LPC) VLCFA were generated from straight chain VLCFA (SC-VLCFA) and were used clinically for newborn screening (Vogel et al., Mol. Genet. Metab. (2015) 114(4):599-603). In vitro efficacy studies were performed by measuring LPC VLCFA level (measured as LPC synthesis) in various cell lines, specifically in 1) human HEK cells, 2) patient derived cells, and 3) human microglia, which are disease relevant CNS cells. Compound 87's dose response relationships and IC50 values were measured in HEK cells, primary patient fibroblasts, immortalized patient lymphocytes, and a human microglial cell line. […]
Immortalized human microglia (Applied Biological Materials (ABM); catalog #T0251; Richmond BC, Canada) were grown and sub-cultured following the subculturing protocols from ABM except DMEM (high glucose, pyruvate; LifeTech Cat. No. 11995) was used instead of Prigrow III medium and standard tissue culture grade flasks and plates were used. […] An equal volume of media was used to neutralize the detachment media and the cells were collected and counted. […]
Upon the completion of the compound treatment, the media (with compound treatment) was aspirated from the well. […] The plate was sealed with a plate tape and put at −80° C. for further VLCFA extraction and VLCFA quantitation on LC-MS, as described below.
VLCFA Extraction and Quantitation on LCMS: […]

IC50: 11 nM
SMILES: O=C(Nc1ccn(-c2ccnc(F)c2)n1)C1(c2ccccc2F)CC1 [Compound 87, 1-(2-fluorophenyl)-N-[1-(2-fluoro-4-pyridyl)pyrazol-3-yl]cyclopropanecarboxamide]
